Source: patent US11033535B2, “Oxadiazoles and thiadiazoles as TGF-β inhibitors” (Southern Research Institute, priority 2017, dated 2021)
Like-named read-outs stand apart in the source and are kept apart here.

Experiment: Pharmacokinetic evaluation following a single oral and intravenous administration
Type: in vivo, CD1 mouse
Conditions: for concentration at 1 h / concentration at 2 h / concentration at 4 h / concentration at 8 h / concentration at 24 h / AUC(0-inf) / AUC(0-t) / Cmax / MRT inf / half-life: CD1, mouse, plasma, po, 5 mg/kg; for concentration at 1 h / concentration at 2 h / concentration at 4 h / concentration at 8 h / concentration at 24 h: Table 5, PO Dose: 5 mg/kg
Experimental: A NMP stock solution was prepared by adding 1.136 mL of NMP to 5.68 mg of compound no. 42140 with vortexing and sonification, to obtain a solution with a concentration at 5 mg/mL of 42140:01. Next, to prepare an intravenous formulation, 0.100 mL of the 5 mg/mL stock solution was placed in a new vial. 0.100 mL of NMP and 0.400 mL of PEG400 were added with vortexing and sonification, followed by addition of 0.400 mL of saline with vortexing and sonification. […] 42140:01. Alternatively, to prepare an oral formulation, 0.200 mL of the 5 mg/mL stock solution was placed in a new vial. 0.400 mL of PEG400 was added with vortexing and sonification, followed by addition of 0.400 mL of saline with vortexing and sonifiction. […] 42140:01.
(§1) Briefly, the desired serial concentrations of working solutions were achieved by diluting a stock solution of the compound with 100% acetonitrile. 3 μL of working solutions (5, 10, 20, 50, 100, 500, 1000, 5000, 10000 ng/mL) were added to 30 μL of the blank CD1 mouse plasma to achieve calibration standards of 0.5-1000 ng/mL (0.5, 1, 2, 5, 10, 50, 100, 500, 1000 ng/mL) in a total volume of 33 μL. Five quality control samples at 1 ng/mL, 2 ng/mL, 5 ng/mL, 50 ng/mL and 800 ng/mL for plasma were prepared independently of those used for the calibration curves. These QC samples were prepared on the day of analysis in the same way as calibration standards.
Next, 33 μL standards, 33 μL QC samples, and 33 μL unknown samples (30 μL plasma with 3 μL blank solution) were added to 200 μL of acetonitrile containing IS mixture for precipitating protein, respectively. Then the samples were vortexed for 30 s. After centrifugation at 4 degree Celsius, 4000 rpm for 15 min, 3 μL of supernatant was injected into the LC/MS/MS system for quantitative analysis.
HPLC analysis was performed using 100% water with 0.1% formic acid (Solution A) and 100% acetonitrile with 0.1% formic acid (Solution B) with a flow rate of 0.6 mL/min.
A NMP stock solution was prepared by adding 2.092 mL of NMP to 10.46 mg of […] with vortexing and sonification, to obtain a solution with a concentration at 5 mg/mL of […]. Next, to prepare an intravenous formulation, 0.100 mL of the 5 mg/mL stock solution was placed in a new vial. 0.100 mL of NMP and 0.400 mL of PEG400 were added with vortexing and sonification, followed by addition of 0.400 mL of saline with vortexing and sonification. […] 42320:01. Alternatively, to prepare an oral formulation, 0.200 mL of the 5 mg/mL stock solution was placed in a new vial. 0.400 mL of PEG400 was added with vortexing and sonification, followed by addition of 0.400 mL of saline with vortexing and sonifiction. […] 42320:01.
as §1, with “50 ng/mL,” for “50 ng/mL”

[1] = Mouse 5, read-out: Concentration
[2] = Mouse 6, read-out: Concentration
[3] = mean, read-out: Concentration, Mean
[4] = Mouse 4, read-out: Concentration
[5] = Table 4, IV Dose: 1 mg/kg, Mouse 1
[6] = Table 4, IV Dose: 1 mg/kg, Mouse 2
[7] = Table 4, IV Dose: 1 mg/kg, Mouse 3
[8] = Table 4, IV Dose: 1 mg/kg, mean
[9] = Table 6, PO Dose: 5 mg/kg, Mouse 4
[10] = Table 6, PO Dose: 5 mg/kg, Mouse 5
[11] = Table 6, PO Dose: 5 mg/kg, Mouse 6
[12] = Table 6, PO Dose: 5 mg/kg, mean

concentration at 1 h [1]: 129 ng/mL | concentration at 1 h [2]: 136 ng/mL | concentration at 1 h [3]: 127 ng/mL | concentration at 2 h [4]: 139 ng/mL | concentration at 2 h [1]: 140 ng/mL | concentration at 2 h [2]: 175 ng/mL | concentration at 2 h [3]: 151 ng/mL | concentration at 4 h [4]: 103 ng/mL | concentration at 4 h [1]: 112 ng/mL | concentration at 4 h [2]: 123 ng/mL | concentration at 4 h [3]: 113 ng/mL | concentration at 8 h [4]: 72.7 ng/mL | concentration at 8 h [1]: 91.4 ng/mL | concentration at 8 h [2]: 93.5 ng/mL | concentration at 8 h [3]: 85.9 ng/mL | concentration at 24 h [4]: 29.8 ng/mL | concentration at 24 h [1]: 22.7 ng/mL | concentration at 24 h [2]: 29.6 ng/mL | concentration at 24 h [3]: 27.4 ng/mL | AUC(0-inf) (Table 6, PO Dose: 5 mg/kg, Mouse 4, read-out: AUCInf): 2110 ng·h/mL | AUC(0-t) (Table 6, PO Dose: 5 mg/kg, Mouse 4, read-out: AUClast): 1620 ng·h/mL | Cmax (Table 6, PO Dose: 5 mg/kg, Mouse 4, read-out: Cmax): 139 ng/mL | MRT inf (Table 6, PO Dose: 5 mg/kg, Mouse 4, read-out: MRTInf—obs): 15.8 h | half-life (Table 6, PO Dose: 5 mg/kg, Mouse 4, read-out: T1/2 (converted)): 11.5 h | AUC(0-inf) (Table 6, PO Dose: 5 mg/kg, Mouse 5, read-out: AUCInf): 2060 ng·h/mL | AUC(0-t) (Table 6, PO Dose: 5 mg/kg, Mouse 5, read-out: AUClast): 1790 ng·h/mL | Cmax (Table 6, PO Dose: 5 mg/kg, Mouse 5, read-out: Cmax): 140 ng/mL | MRT inf (Table 6, PO Dose: 5 mg/kg, Mouse 5, read-out: MRTInf—obs): 11.4 h | half-life (Table 6, PO Dose: 5 mg/kg, Mouse 5, read-out: T1/2 (converted)): 8.47 h | AUC(0-inf) (Table 6, PO Dose: 5 mg/kg, Mouse 6, read-out: AUCInf): 2380 ng·h/mL | AUC(0-t) (Table 6, PO Dose: 5 mg/kg, Mouse 6, read-out: AUClast): 1960 ng·h/mL | Cmax (Table 6, PO Dose: 5 mg/kg, Mouse 6, read-out: Cmax): 175 ng/mL | MRT inf (Table 6, PO Dose: 5 mg/kg, Mouse 6, read-out: MRTInf—obs): 13.1 h | half-life (Table 6, PO Dose: 5 mg/kg, Mouse 6, read-out: T1/2 (converted)): 9.71 h | AUC(0-inf) (Table 6, PO Dose: 5 mg/kg, mean, read-out: AUCInf, Mean): 2190 ng·h/mL | AUC(0-t) (Table 6, PO Dose: 5 mg/kg, mean, read-out: AUClast, Mean): 1790 ng·h/mL | Cmax (Table 6, PO Dose: 5 mg/kg, mean, read-out: Cmax, Mean): 151 ng/mL | MRT inf (Table 6, PO Dose: 5 mg/kg, mean, read-out: MRTInf—obs, Mean): 13.4 h | half-life (Table 6, PO Dose: 5 mg/kg, mean, read-out: T1/2, Mean (converted)): 9.9 h | Tmax (CD1, plasma, Table 6, PO Dose: 5 mg/kg, Mouse 4): 2 h | AUClast/D [5]: 462 h·ng/mL per mg/kg | AUC—% Extrap—obs [5]: 17.0% | Cl_obs [5]: 29.9 mL/min/kg | AUClast/D [6]: 389 h·ng/mL per mg/kg | AUC—% Extrap—obs [6]: 19.8% | Cl_obs [6]: 34.3 mL/min/kg | AUClast/D [7]: 394 h·ng/mL per mg/kg | AUC—% Extrap—obs [7]: 11.6% | Cl_obs [7]: 37.4 mL/min/kg | AUClast/D, Mean [8]: 415 h·ng/mL per mg/kg | AUC—% Extrap—obs, Mean [8]: 16.1% | C0, Mean [8]: 101 ng/mL | Cl_obs, Mean [8]: 33.9 mL/min/kg | AUClast/D [9]: 324 h·ng/mL per mg/kg | AUC—% Extrap—obs [9]: 23.4% | F [9]: 78.0% | AUClast/D [10]: 358 h·ng/mL per mg/kg | AUC—% Extrap—obs [10]: 13.4% | F [10]: 83.3% | AUClast/D [11]: 393 h·ng/mL per mg/kg | AUC—% Extrap—obs [11]: 17.4% | F [11]: 95.9% | AUClast/D, Mean [12]: 358 h·ng/mL per mg/kg | AUC—% Extrap—obs, Mean [12]: 18.1% | F, Mean [12]: 85.7%
Compound: CNCc1ccc(C[C@H](NC(C)=O)c2nnc(-c3cccc(OC(F)(F)F)c3)s2)cc1 [Compound 42140, N-(2-(4-((methylamino)methyl)phenyl)-1-(5-(3-(trifluoromethoxy)phenyl)-1,3,4-thiadiazol-2-yl)ethyl)acetamide]
